Experimental data reported in patent US12428424B2, “Estrogen receptor-modulating compounds” (RADIUS PHARMACEUTICALS, INC., priority 2019, dated 2025).
pIC50: −log10 of the molar value.

What was measured:
[1] = test system: MCF-7 cells; experiment: MCF-7 Proliferation Inhibition Assay (E2-induced proliferation, CellTiterGlo); assay type: cell-based; details: Homo sapiens, MCF7, 168 h, 10 pM dose of E2, 7 days incubation
Procedure: Proliferation Assay in MCF-7 and T47 D Cells
MCF-7 and T47D cells were stripped for 3 days in phenol red-free RPMI1640 media containing 10% charcoal-stripped fetal bovine serum (CS-FBS) and 1% Penicillin/streptomycin (P/S). Cells (volume of 90 μl/well) were seeded in 96 well plates at a density of 2500 cells/well for MCF-7 cells and 1500 cells/well for T47D cells. On the following day, plates were treated with the test compounds (10× concentration in media, volume of 10 μl/well added) both in the absence and in the presence of two doses of E2 (10 pM and 1 nM). The cells were incubated with test compounds for 7 days. The viability of the cells was assessed using CellTiterGlo (Promega, Cat #G7573) according to the manufacturer's instructions. Growth inhibition curves and IC50 values were calculated using the GraphPadPrism 6.0 software. Data values shown in Table 1 were obtained using the 10 pM dose of E2.

[2] = test system: E2-induced increase in uterine weight; experiment: Immature rat uterine assay; assay type: in vivo, Sprague-Dawley rat; details: immature rats, oral dose of 3 mg/kg in combination with E2 (0.01 mg/kg), once daily for three days
Procedure: Immature Rat Uterine Assay
Sprague-Dawley rat pups were weaned at 19 days of age, randomized into groups (n=6), and administered vehicle (aqueous 20% HPBCD, 10% PEG400 in H2O), E2 (0.01 mg/kg), test compounds (0.1 mg/kg-3 mg/kg) in combination with E2 (0.01 mg/kg), either by subcutaneous injection or by oral gavage, once daily for three consecutive days. Twenty-four hours after the final dose, all animals were killed by carbon dioxide inhalation. Body weights and wet uterine weights were recorded for each animal. GraphPadPrism 6.0 software was used to analyze data.

| SMILES | pIC50 [1] | wet uterine weight [2] |
| --- | --- | --- |
| Cc1ccccc1-c1c(F)c2c3c(F)n[nH]c3ccc2n1Cc1ccc(CCNCCCF)cc1 [Compound D-107, N-(4-((1,8-difluoro-7-(o-tolyl)pyrrolo[3,2-e]indazol-6(3H)-yl)methyl)phenethyl)-3-fluoropropan-1-amine] | > 9.00 | – |
| Cc1ccccc1-c1c(Cl)c2c3cn[nH]c3ccc2n1Cc1ccc(CCNCCCF)cc1 [Compound D-109, N-(4-((8-Chloro-7-(o-tolyl)pyrrolo[3,2-e]indazol-6(3H)-yl)methyl)phenethyl)-3-fluoropropan-1-amine] | > 9.00 | – |
| Cc1ccccc1-c1cc2c3c(F)n[nH]c3ccc2n1Cc1ccc(CCNCCCF)cc1F [Compound D-108, 3-Fluoro-N-(3-fluoro-4-((1-fluoro-7-(o-tolyl)pyrrolo[3,2-e]indazol-6(3H)-yl)methyl)phenethyl)propan-1-amine] | > 9.00 | – |
| Cc1ccccc1-c1c(F)c2c3cn[nH]c3ccc2n1Cc1c(F)cc(CCNCCCF)cc1F [Compound D-106, N-(3,5-difluoro-4-((8-fluoro-7-(o-tolyl)pyrrolo[3,2-e]indazol-6(3H)-yl)methyl)phenethyl)-3-fluoropropan-1-amine] | > 9.00 | – |
| Cc1ccccc1-c1c(F)c2c3cn[nH]c3ccc2n1Cc1ccc(CCNCCCF)cc1F [Compound D-105, 3-fluoro-N-(3-fluoro-4-((8-fluoro-7-(o-tolyl)pyrrolo[3,2-e]indazol-6(3H)-yl)methyl)phenethyl)propan-1-amine] | > 9.00 | suppressed wet uterine weight to baseline |
